Assay results as given in ChEMBL document CHEMBL4052759, “Discovery of DS79182026: A potent orally active hepcidin production inhibitor” (Bioorg Med Chem Lett, 2017).

What was measured:
[1] = biological target: Ephrin type-A receptor 2 (Homo sapiens) (UniProt P29317); experiment: Inhibition of EPHA2 (unknown origin) at 0.49 uM relative to control
[2] = biological target: Ephrin type-A receptor 5 (Homo sapiens) (UniProt P54756); experiment: Inhibition of EPHA5 (unknown origin) at 0.49 uM relative to control
[3] = biological target: Protein kinase C gamma type (Homo sapiens) (UniProt P05129); experiment: Inhibition of PKC-gamma (unknown origin) at 0.49 uM relative to control
[4] = biological target: Cyclin-dependent kinase 5/CDK5 activator 1 (Homo sapiens) (UniProt Q00535+Q15078); experiment: Inhibition of CDK5/p25 (unknown origin) at 0.49 uM relative to control; assay type: protein-complex assay
[5] = biological target: SRSF protein kinase 3 (Homo sapiens) (UniProt Q9UPE1); experiment: Inhibition of MSSK1 (unknown origin) at 0.49 uM relative to control
[6] = biological target: Fibroblast growth factor receptor 4 (Homo sapiens) (UniProt P22455); experiment: Inhibition of FGFR4 (unknown origin) at 0.49 uM relative to control
[7] = tested on: Receptor-type tyrosine-protein kinase FLT3 (Homo sapiens), P36888 [D835Y]; experiment: Inhibition of Flt3 D835Y mutant (unknown origin) at 0.49 uM relative to control
[8] = biological target: Serine/threonine-protein kinase BRSK2 (Homo sapiens) (UniProt Q8IWQ3); experiment: Inhibition of BRSK2 (unknown origin) at 0.49 uM relative to control
[9] = biological target: Calcium/calmodulin-dependent protein kinase type II subunit beta (Homo sapiens) (UniProt Q13554); experiment: Inhibition of CaMK2-beta (unknown origin) at 0.49 uM relative to control
[10] = biological target: Serine/threonine-protein kinase 25 (Homo sapiens) (UniProt O00506); experiment: Inhibition of YSK (unknown origin) at 0.49 uM relative to control
[11] = tested on: Tyrosine-protein kinase ABL1 (Homo sapiens), P00519 [H396P]; experiment: Inhibition of Abl H396P mutant (unknown origin) at 0.49 uM relative to control
[12] = tested on: Tyrosine-protein kinase ABL1 (Homo sapiens), P00519 [E255K]; experiment: Inhibition of ABL1 E255K mutant (unknown origin) at 0.49 uM relative to control
[13] = biological target: Tyrosine-protein kinase BTK (Homo sapiens) (UniProt Q06187); experiment: Inhibition of BTK (unknown origin) at 0.49 uM relative to control
[14] = biological target: Platelet-derived growth factor receptor beta (Homo sapiens) (UniProt P09619); experiment: Inhibition of PDGFR beta (unknown origin) at 0.49 uM relative to control
[15] = biological target: Tyrosine-protein kinase receptor TYRO3 (Homo sapiens) (UniProt Q06418); experiment: Inhibition of TYRO3 (unknown origin) at 0.49 uM relative to control
[16] = biological target: Protein kinase C beta type (Homo sapiens) (UniProt P05771); experiment: Inhibition of PKC-beta2 (unknown origin) at 0.49 uM relative to control
[17] = biological target: Casein kinase I isoform delta (Homo sapiens) (UniProt P48730); experiment: Inhibition of CK1-delta (unknown origin) at 0.45 uM relative to control
[18] = biological target: Cyclin-dependent kinase 3 (Homo sapiens) (UniProt Q00526); experiment: Inhibition of CDK3 (unknown origin) at 0.45 uM relative to control
[19] = biological target: Dual specificity protein kinase CLK2 (Homo sapiens) (UniProt P49760); experiment: Inhibition of CLK2 (unknown origin) at 0.45 uM relative to control
[20] = biological target: Ephrin type-B receptor 3 (Homo sapiens) (UniProt P54753); experiment: Inhibition of EPHB3 (unknown origin) at 0.45 uM relative to control
[21] = tested on: Fibroblast growth factor receptor 1 (Homo sapiens), P11362 [V561M]; experiment: Inhibition of FGFR1 V561M mutant (unknown origin) at 0.45 uM relative to control
[22] = tested on: Fibroblast growth factor receptor 2 (Homo sapiens), P21802 [N549H]; experiment: Inhibition of FGFR2 N549H mutant (unknown origin) at 0.45 uM
[23] = biological target: T1, Serine/threonine-protein kinase Chk1 (Homo sapiens) (UniProt O14757); experiment: Inhibition of CHK1 (unknown origin) at 0.45 uM relative to control
T1 sequence (whole entry): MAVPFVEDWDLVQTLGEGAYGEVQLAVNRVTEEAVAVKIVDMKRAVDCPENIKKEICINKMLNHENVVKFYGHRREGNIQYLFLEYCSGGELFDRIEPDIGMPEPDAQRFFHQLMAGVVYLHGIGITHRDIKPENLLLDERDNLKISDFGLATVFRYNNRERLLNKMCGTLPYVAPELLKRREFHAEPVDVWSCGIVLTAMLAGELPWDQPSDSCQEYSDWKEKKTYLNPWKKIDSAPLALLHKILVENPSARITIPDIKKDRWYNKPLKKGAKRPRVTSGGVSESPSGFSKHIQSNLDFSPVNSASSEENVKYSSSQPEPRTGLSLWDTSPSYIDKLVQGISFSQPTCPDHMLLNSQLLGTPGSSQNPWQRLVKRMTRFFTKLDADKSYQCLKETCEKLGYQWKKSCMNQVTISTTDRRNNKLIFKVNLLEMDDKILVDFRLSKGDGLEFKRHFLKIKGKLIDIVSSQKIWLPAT

[24] = biological target: Dual specificity tyrosine-phosphorylation-regulated kinase 1B (Homo sapiens) (UniProt Q9Y463); experiment: Inhibition of DYRK1B (unknown origin) at 0.45 uM relative to control
[25] = biological target: Mitogen-activated protein kinase 12 (Homo sapiens) (UniProt P53778); experiment: Inhibition of p38-gamma (unknown origin) at 0.45 uM relative to control
[26] = biological target: Tyrosine-protein kinase Lck (Homo sapiens) (UniProt P06239); experiment: Inhibition of LCK (unknown origin) at 0.45 uM relative to control
[27] = biological target: MAP kinase-interacting serine/threonine-protein kinase 2 (Homo sapiens) (UniProt Q9HBH9); experiment: Inhibition of MNK2 (unknown origin) at 0.45 uM relative to control
[28] = species on record: Homo sapiens; experiment: Inhibition of ACK (unknown origin) at 0.45 uM relative to control
[29] = biological target: RAF proto-oncogene serine/threonine-protein kinase (Homo sapiens) (UniProt P04049); experiment: Inhibition of c-Raf (unknown origin) at 0.45 uM relative to control
[30] = biological target: Ribosomal protein S6 kinase alpha-5 (Homo sapiens) (UniProt O75582); experiment: Inhibition of MSK1 (unknown origin) at 0.078 uM relative to control
[31] = biological target: Mitogen-activated protein kinase kinase kinase kinase 4 (Homo sapiens) (UniProt O95819); experiment: Inhibition of HGK (unknown origin) at 0.078 uM relative to control
[32] = biological target: Insulin-like growth factor 1 receptor (Homo sapiens) (UniProt P08069); experiment: Inhibition of IGF1R (unknown origin) at 0.078 uM relative to control
[33] = biological target: Tyrosine-protein kinase Lck (Homo sapiens) (UniProt P06239); experiment: Inhibition of LCK (unknown origin) at 0.078 uM relative to control

Cc1[nH]nc(C2CC2)c1-c1ccc2c(NC(=O)C3CC3)noc2c1
inhibition [1]: -0.3% | inhibition [2]: 3% | inhibition [3]: 2% | inhibition [4]: 4.3% | inhibition [5]: 4% | inhibition [6]: 0.3% | inhibition [7]: 15.3% | inhibition [8]: -2.3% | inhibition [9]: 2.3% | inhibition [10]: 4.3% | inhibition [11]: 36.7% | inhibition [12]: 21.3% | inhibition [13]: 0.3% | inhibition [14]: 20% | inhibition [15]: 8.7% | inhibition [16]: 5.3%

Cc1n[nH]c(C)c1-c1ccc2c(NC(=O)c3ccc(N4CCN(C)CC4)cc3)n[nH]c2c1
inhibition [17]: 5% | inhibition [18]: 7.3% | inhibition [19]: 9% | inhibition [20]: 2.7% | inhibition [21]: 23.7% | inhibition [22]: 40% | inhibition [23]: 2.3% | inhibition [24]: 19.7% | inhibition [25]: 0% | inhibition [26]: 32.3% | inhibition [27]: -1% | inhibition [28]: 13% | inhibition [29]: 7%

COC(=O)Nc1noc2cc(-c3c(-c4ccccn4)n[nH]c3C)ccc12
inhibition [30]: -5.7% | inhibition [31]: 40.7% | inhibition [32]: 2.3% | inhibition [33]: 4.7%
